In patent publication US11965159B2, “Compositions and methods for regulating proteins and nucleic acids activities” (THE BROAD INSTITUTE, INC., priority 2019, dated 2024):

Target: T1, SpCas9:gRNA ribonucleoprotein complex (Streptococcus pyogenes serotype M1, UniProt Q99ZW2)
T1 construct: His6 (N, cleaved yes); made in house; host or cells: E. coli BL21 Star (DE3)
Assay: 19F NMR binding assay
Settings: [Ligand] 50 μM
Description: (§1) NMR binding assay. All samples were prepared with 50 μM BRD7087 in 20 mM Tris buffer (pH=7.4) with varying concentrations of SpCas9:gRNA in a 3 mm NMR tube. Experiments were performed on a 600 MHz (19F: 564.71 MHz) BRUKER Avance™ III NMR spectrometer equipped with a 5 mm QCI-F CryoProbe™ and a SampleJet for automated sample handling. To acquire spectra, a standard one-pulse 19F experiment with WALTZ-16 for proton decoupling during acquisition, a 5 second recycle delay, and 256 scans was used. All spectra were recorded at 280 K. NMR data were apodized with a 1 Hz exponential function prior to Fourier transformation. All spectra were baseline corrected; peak widths and intensities were extracted using the automated line-fitting feature provided with the MNova software package. Determination of the value of Kd was accomplished using least squares fitting to the expression given in Equation 8 in the paper by Shortridge et al.2.
Kd values obtained by NMR rely on the assumption that ligand binding is in fast-exchange, which typically holds true for ligands with Kd in the 0.5 μM to 20 mM range.
as §1, with “(^19F:” for “(19F:”, “^19F” for “19F”, “al.^2.” for “al.2.”

T1 sequence (Q99ZW2 whole entry, one chain of several): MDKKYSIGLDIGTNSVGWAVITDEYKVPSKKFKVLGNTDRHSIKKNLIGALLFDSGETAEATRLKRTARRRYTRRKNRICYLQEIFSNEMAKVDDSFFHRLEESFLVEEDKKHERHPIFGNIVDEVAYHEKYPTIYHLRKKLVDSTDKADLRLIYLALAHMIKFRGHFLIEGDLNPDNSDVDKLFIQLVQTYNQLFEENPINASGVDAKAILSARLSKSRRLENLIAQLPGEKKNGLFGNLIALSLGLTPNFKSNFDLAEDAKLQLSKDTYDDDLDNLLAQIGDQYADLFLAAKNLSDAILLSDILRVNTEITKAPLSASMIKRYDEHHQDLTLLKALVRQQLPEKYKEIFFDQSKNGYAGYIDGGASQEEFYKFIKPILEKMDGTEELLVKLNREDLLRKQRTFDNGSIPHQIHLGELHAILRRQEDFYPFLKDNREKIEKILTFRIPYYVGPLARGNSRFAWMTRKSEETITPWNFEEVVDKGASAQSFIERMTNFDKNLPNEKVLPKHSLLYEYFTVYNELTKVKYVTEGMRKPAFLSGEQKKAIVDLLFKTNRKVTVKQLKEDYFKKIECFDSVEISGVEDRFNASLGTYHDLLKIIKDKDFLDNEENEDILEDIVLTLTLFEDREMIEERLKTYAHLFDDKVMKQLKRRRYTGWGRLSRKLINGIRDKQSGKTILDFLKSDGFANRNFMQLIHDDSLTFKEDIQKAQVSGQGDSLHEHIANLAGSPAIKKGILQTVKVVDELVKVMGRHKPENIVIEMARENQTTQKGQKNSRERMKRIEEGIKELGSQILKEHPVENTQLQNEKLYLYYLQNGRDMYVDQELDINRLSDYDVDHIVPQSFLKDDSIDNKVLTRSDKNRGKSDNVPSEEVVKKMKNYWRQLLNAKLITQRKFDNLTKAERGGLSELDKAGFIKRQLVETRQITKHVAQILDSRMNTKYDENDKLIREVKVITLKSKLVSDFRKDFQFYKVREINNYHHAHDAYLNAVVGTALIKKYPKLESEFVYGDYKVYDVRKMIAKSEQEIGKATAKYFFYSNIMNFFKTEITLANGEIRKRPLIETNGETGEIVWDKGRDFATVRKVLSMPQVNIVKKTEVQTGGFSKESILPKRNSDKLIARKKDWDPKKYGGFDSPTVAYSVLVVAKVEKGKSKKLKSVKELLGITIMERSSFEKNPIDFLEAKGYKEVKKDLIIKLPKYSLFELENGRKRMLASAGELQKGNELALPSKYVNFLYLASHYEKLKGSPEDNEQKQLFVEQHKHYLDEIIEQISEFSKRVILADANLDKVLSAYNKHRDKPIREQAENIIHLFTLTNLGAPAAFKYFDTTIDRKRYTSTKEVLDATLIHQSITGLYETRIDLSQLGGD

Question: Which results are given for `OC[C@H]1Nc2ccc(-c3cccc(F)c3)cc2[C@H]2[C@@H]1CCN2Cc1ccncc1` [BRD7087, ((3aR,4S,9bR)-8-(3-Fluorophenyl)-1-(pyridin-4-ylmethyl)-2,3,3a,4,5,9b-hexahydro-1H-pyrrolo[3,2-c]quinolin-4-yl)methanol]?
Answer: LW ([Protein:RNA] 0 μM): 4.1 Hz; Peak Area ([Protein:RNA] 0 μM): 3151271.718; Peak Intensity ([Protein:RNA] 0 μM): 572470.95; Fractional Occupancy ([Protein:RNA] 0 μM, 1-Ibound/I0): 0; LW ([Protein:RNA] 0.75 μM): 4.3 Hz; Peak Area ([Protein:RNA] 0.75 μM): 2968891.536; Peak Intensity ([Protein:RNA] 0.75 μM): 497630.81; LW ([Protein:RNA] 1.0 μM): 4.6 Hz; Peak Area ([Protein:RNA] 1.0 μM): 2999269.636; Peak Intensity ([Protein:RNA] 1.0 μM): 468481.06; LW ([Protein:RNA] 1.25 μM): 5.3 Hz; Peak Area ([Protein:RNA] 1.25 μM): 2964107.303; Peak Intensity ([Protein:RNA] 1.25 μM): 398322.72; LW ([Protein:RNA] 1.5 μM): 5.9 Hz; Peak Area ([Protein:RNA] 1.5 μM): 3176044.761; Peak Intensity ([Protein:RNA] 1.5 μM): 375769.97; LW ([Protein:RNA] 1.75 μM): 6.3 Hz; Peak Area ([Protein:RNA] 1.75 μM): 3020022.312; Peak Intensity ([Protein:RNA] 1.75 μM): 342640.49
